Data on six compounds can be found in BindingDB's records for doi:10.1021/jm990614i (Harvard Medical School, 2000).

One assay has as its target Aldehyde dehydrogenase, mitochondrial (Mesocricetus auratus). The assay can be described thus: Inhibition of Hamster Liver mitochondrial ALDH-2.
Usually IC50 stands for the concentration needed to halve the response being measured. A high value points to lower potency. `C=CCOc1ccc2c(=O)c(-c3ccc(O)cc3)coc2c1` [7-Allyloxy-3-(4-hydroxy-phenyl)-chromen-4-one] returned an IC50 of 800 nM. Same read-out and setting: under `O=C(O)CCCCCCOc1ccc2c(=O)c(-c3ccc(O)cc3)coc2c1` [7-[3-(4-Hydroxy-phenyl)-4-oxo-4H-chromen-7-yloxy]-heptanoic acid] stands 9 nM; under `O=c1c(-c2ccc(O)cc2)coc2cc(OCCC3OCCCO3)ccc12` [7-(2-[1,3]Dioxan-2-yl-ethoxy)-3-(4-hydroxy-phenyl)-chromen-4-one], 400 nM; under `CCOc1ccc2c(=O)c(-c3ccc(O)cc3)coc2c1` [7-Ethoxy-3-(4-hydroxy-phenyl)-chromen-4-one], 40 nM. `O=C(O)CCCCCCCCCOc1ccc2c(=O)c(-c3ccc(O)cc3)coc2c1` [10-(3-(4-hydroxyphenyl)-4-oxo-4H-chromen-7-yloxy)decanoic acid] displayed an IC50 of 4 nM.

For a further assay the target is unchanged. The assay can be described thus: Compound was evaluated for the inhibition of Hamster Liver mitochondrial ALDH-2.
On to `O=c1c(-c2ccc(O)cc2)coc2cc(OCC(O)CO)ccc12` (stereo unspecified) [7-(2,3-Dihydroxy-propoxy)-3-(4-hydroxy-phenyl)-chromen-4-one], for which half-maximal inhibition (IC50) was put at 100 nM.
